# Results reported in US12234230B2, “Substituted benzyl-triazole compounds for Cbl-b inhibition, and further uses thereof” (Nurix Therapeutics, Inc., priority 2019, dated 2025).
# Tests used:
# [1] = tested on: primary human total T-cells; test: Primary human total T-cell activation (IL-2 secretion, CD25 surface staining), Biological Example 12; conditions: anti-CD3 and anti-CD28 co-stimulation, fold change over baseline, Table 12-1
# Method: Peripheral blood mononuclear cells (PBMC) were obtained either: 1) by using Ficoll-Paque™ (GE Healthcare) for separation of peripheral blood hematopoietic cells from buffy coats of healthy human donors; or 2) directly from LeukoPak donations. […] The cells were rested overnight at 37° C. 5% CO2. The Cbl-inhibitor was added to 1×10^5 cells per well and the plate was incubated for one hour at 37° C. in 5% CO2 at the concentrations indicated (Table 12-1) with a final DMSO concentration of <0.1%. For samples stimulated with anti-CD3 antibody and anti-CD28 antibody (anti-CD3/anti-CD28), the Cbl-b inhibitor concentrations tested were 1 μM, and 0.3 μM. For samples stimulated with anti-CD3 antibody alone (anti-CD3), the Cbl-b inhibitor concentrations tested were 3 μM, and 1 μM. […] To prepare plates with plate bound anti-CD3 antibody (OKT3), 96-well round bottom tissue culture plates were coated with 100 μL of anti-CD3 antibody (OKT3) at 10 μg/mL for 4 hours at 37° C. 5% CO2 in phosphate buffered saline (PBS). […] Cells were stimulated for 48 hours prior to harvesting the cell free supernatant and staining the cell population for surface marker assessment by flow cytometry. Supernatants were analyzed for cytokine secretion, including IL-2 by ELISA (R&D Systems, Peprotech or Life Technologies) or Luminex multiplex kits (Procarta Life Technologies) following the manufacturer's protocol. Cells were stained with anti-CD25 antibody (BD Biosciences) to assess levels of surface marker of activation.
# Readouts were reported as fold change over baseline. Baseline for this study was the measurement obtained from total human T-cells stimulated with anti-CD3 antibody and with soluble anti-CD28 antibody, wherein the cells were not incubated with a Cbl-b inhibitor (Table 12-1). […] For T-cells stimulated with anti-CD3 alone, changes greater than 0.1-fold over baseline for IL-2 secretion and greater than 0.6-fold over baseline for CD25 surface staining were considered significant and a positive response.
# [2] = tested on: primary human total T-cells; test: Primary human total T-cell activation (IL-2 secretion, CD25 surface staining), Biological Example 9; conditions: anti-CD3 and anti-CD28 co-stimulation, fold change over baseline, Table 9-1
# Method: Peripheral blood mononuclear cells (PBMC) were obtained either: 1) by using Ficoll-Paque™ (GE Healthcare) for separation of peripheral blood hematopoietic cells from buffy coats of healthy human donors; or 2) directly from LeukoPak donations. […] The cells were rested overnight at 37° C. 5% CO2. The Cbl-inhibitor was added to 1×10^5 cells per well and the plate was incubated for one hour at 37° C. in 5% CO2 at the concentrations indicated (Table 9-1) with a final DMSO concentration of <0.1%. For samples stimulated with anti-CD3 antibody and anti-CD28 antibody (anti-CD3/anti-CD28), the Cbl-b inhibitor concentrations tested were 1 μM, and 0.3 μM. For samples stimulated with anti-CD3 antibody alone (anti-CD3), the Cbl-b inhibitor concentrations tested were 3 μM, and 1 μM. […] To prepare plates with plate bound anti-CD3 antibody (OKT3), 96-well round bottom tissue culture plates were coated with 100 μL of anti-CD3 antibody (OKT3) at 10 μg/mL for 4 hours at 37° C. 5% CO2 in phosphate buffered saline (PBS). […] Cells were stimulated for 48 hours prior to harvesting the cell free supernatant and staining the cell population for surface marker assessment by flow cytometry. Supernatants were analyzed for cytokine secretion, including IL-2 by ELISA (R&D Systems, Peprotech or Life Technologies) or Luminex multiplex kits (Procarta Life Technologies) following the manufacturer's protocol. Cells were stained with anti-CD25 antibody (BD Biosciences) to assess levels of surface marker of activation.
# Readouts were reported as fold change over baseline. Baseline for this study was the measurement obtained from total human T-cells stimulated with anti-CD3 antibody and with soluble anti-CD28 antibody, wherein the cells were not incubated with a Cbl-b inhibitor (Table 9-1). […] For T-cells stimulated with anti-CD3 alone, changes greater than 0.1-fold over baseline for IL-2 secretion and greater than 0.6-fold over baseline for CD25 surface staining were considered significant and a positive response.
# [3] = tested on: primary human total T-cells; test: Primary human total T-cell activation (IL-2 secretion, CD25 surface staining), Biological Example 2; conditions: anti-CD3 and anti-CD28 co-stimulation, fold change over baseline
# [4] = target: T1, Cbl-b (Homo sapiens (Human), UniProt Q13191); test: Cbl-b displacement assay (Cbl-b inhibition assay), Biological Example 1; format: binding; conditions: 0.125 nM Cbl-b final concentration (Low); read-out: Cbl-b activity IC50 (Low)
# Method: (§1) The ability of candidate compounds to displace a known inhibitor and thereby inhibit Cbl-b activity was measured by monitoring the interaction of Cbl-b with a fluorophore-labeled probe in the presence of the candidate compound.
# Following the one hour incubation, the plates were read for TR-FRET signal at 520/620 nm using an Envision plate reader (Perkin Elmer).
# [5] = target: T1, Cbl-b; test: Cbl-b displacement assay (Cbl-b inhibition assay), Biological Example 11; format: binding; conditions: 0.125 nM Cbl-b final concentration (Low); Table 11-1
# Method: (§2) Candidate compounds were evaluated for their ability to bind and inhibit Cbl-b, an E3 ubiquitin-protein ligase, as evidenced by their ability to displace a fluorophore-labeled probe bound to Cbl-b.
# as §1
# (§3) Fluorescently-labeled inhibitor probe was synthesized and tagged with BODIPY FL. […] Following the one hour incubation, the plates were read for TR-FRET signal at 520/620 nm using an Envision plate reader (Perkin Elmer).
# (§4) The resulting data for the Cbl-b activity assays were analyzed using standard methods to determine the IC50 values for the tested compounds.
# [6] = target: T1, Cbl-b; test: Cbl-b displacement assay (Cbl-b inhibition assay), Biological Example 8; format: binding; conditions: 0.125 nM Cbl-b final concentration (Low); Table 8-1
# Method: as §2, §1, §3, §4
# [7] = tested on: colon carcinoma CT26 tumor cells; conditions: 30 mg/kg PO daily D8 to D28; CT26 tumors on both flanks; compared to vehicle control
# Method: Mice were implanted with 100,000 colon carcinoma CT26 tumor cells on both flanks of the mice. […] Treatments were continued daily until Day Twenty Eight (D28). […] A group of mice received an oral vehicle (0.5% Methylcellulose, 0.2% Polysorbate 80). Tumor growth inhibition (TGI) was calculated as follows: (1−(median tumor volume of drug treated group/median tumor volume of vehicle treated group))×100.
# [8] = tested on: TC-1 cells; test: TC-1 syngeneic mouse model, vaccine combination, Biological Example 15; format: in vivo; conditions: Compound 23 orally D13 to D47 in combination with HPV16 vaccine s.c. at D13 and D20; TC-1 tumor bearing mice
# Method: Mice were implanted with 50,000 TC-1 cells/mouse subcutaneously into the right flank at Day Zero (DO). Thirteen days later (D13), when tumors measured approximately 50-100 mm^3, mice from appropriate groups (15 mice per group) were injected with HPV16 vaccine (s.c., total 2 doses, at D13 and Day 20 (D20)). […] Mice were euthanized when tumor exceeded 1500-2000 mm^3, according to IACUC guidelines. Survival was compared using GraphPad Prism using log-rank (Mantel-Cox) test. **=p<0.001 of treatment vs. Vehicle+Vaccine control group at Day 61.
# TC-1 cells were derived by stable transfection of mouse lung epithelial cells with human papillomavirus strain 16 (HPV16) early proteins 6 and 7 (E6 and E7) and activated h-ras oncogene. Cells were obtained from Dr. T-C Wu (Johns Hopkins University). (Lin K Y, Guarnieri F G, Staveley-O'Carroll K F, Levitsky H I, August J T, Pardoll D M, et al. Treatment of established tumors with a novel vaccine that enhances major histocompatibility class II presentation of tumor antigen. Cancer Res 1996; 56:21-6).
# The HPV16 vaccine was prepared as follows: The CTL epitope from HPV16 E749-57 (9 amino acid (aa) peptide, […], 100 μg/mouse, SEQ ID NO: 2) was mixed with synthetic T helper epitope PADRE (13 aa peptide, aK-Cha-[…]a, SEQ ID NO: 3, where “a” is D-alanine and Cha is L-cyclohexylalanine, 20 μg/mouse) and with QuilA adjuvant (20 ug/mouse).
# T1 sequence (Q13191 36-427): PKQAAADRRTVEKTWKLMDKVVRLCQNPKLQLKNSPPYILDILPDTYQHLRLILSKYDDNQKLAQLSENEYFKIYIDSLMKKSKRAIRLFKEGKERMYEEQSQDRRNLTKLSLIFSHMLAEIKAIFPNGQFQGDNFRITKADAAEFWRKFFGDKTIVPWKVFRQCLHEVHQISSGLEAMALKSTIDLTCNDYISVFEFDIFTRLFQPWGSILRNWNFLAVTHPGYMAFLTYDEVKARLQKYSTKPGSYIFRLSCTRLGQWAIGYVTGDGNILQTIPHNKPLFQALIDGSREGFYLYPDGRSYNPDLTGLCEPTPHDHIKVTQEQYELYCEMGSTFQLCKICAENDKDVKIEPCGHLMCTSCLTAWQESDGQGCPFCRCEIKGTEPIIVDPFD
smiles,measurement,setting,value
"C[C@H]1CCCN(Cc2cc3c(c(C(F)(F)F)c2)CN(c2cccc([C@]4(c5nncn5C)C[C@@H](C)C4)c2)C3=O)C1 [Compound 23, 2-(3-((1s,3R)-3-methyl-1-(4-methyl-4H-1,2,4-triazol-3-yl)cyclobutyl)phenyl)-6-(((S)-3-methylpiperidin-1-yl)methyl)-4-(trifluoromethyl)isoindolin-1-one]",IL-2 secretion CD3/CD28 0.3 μM,[1]; 0.3 μM inhibitor,A (A indicates >15 fold)
same,IL-2 secretion CD3/CD28 1 μM,[1]; 1 μM inhibitor,A (A indicates >15 fold)
same,IL-2 secretion CD3/CD28 0.3 μM,[2]; 0.3 μM inhibitor,A (A indicates >15 fold)
same,IL-2 secretion CD3/CD28 1 μM,[2]; 1 μM inhibitor,A (A indicates >15 fold)
same,CD25 staining CD3/CD28 0.3 μM,[3]; 0.3 μM inhibitor,B (B indicates 1.24-1.39 fold)
same,IL-2 secretion CD3/CD28 0.3 μM,[3]; 0.3 μM inhibitor,C (C indicates <20 fold)
same,CD25 staining CD3/CD28 1 μM,[3]; 1 μM inhibitor,B (B indicates 1.24-1.39 fold)
same,IL-2 secretion CD3/CD28 1 μM,[3]; 1 μM inhibitor,C (C indicates <20 fold)
same,IC50,[4],< 5 nM
same,IC50,[5],< 1 nM
same,IC50,[6],< 1 nM
same,Tumor growth inhibition (TGI),[7],68%
same,survival,[8],prolonged survival
same,tumor progression (tumor volume),[8],significant slowdown of tumor progression
